What is called IC50 is the concentration at which inhibition is half-maximal.

One assay concerns Hsp90. The experiment in a line: IC50 of compounds of the invention, Example B Method 2 (Tables 6-9). It is filed as cell-based, human. The conditions noted are these: Table 7; Her2 degradation / inhibition of Hsp90; Method 2: MV-4-11 cells, 72 hours, Cell Counting Kit-8; read-out: IC50. (Tetrazolium assays rely on reduction of a dye to a coloured formazan, in cell work by metabolically active cells.)
Regarding `COCC(=O)Nc1nnc(-c2cc(C(C)C)c(O)cc2O)n1-c1ccc2c(ccn2C)c1` [Compound 13a, N-(5-(2,4-dihydroxy-5-isopropylphenyl)-4-(1-methyl-1H-indol-5-yl)-4H-1,2,4-triazol-3-yl)-2-methoxyacetamide], the half-inhibitory concentration (IC50) came out at 1.8 µM.
As for `Cc1cc(C(=O)Nc2nnc(-c3cc(C(C)C)c(O)cc3O)n2-c2ccc3c(ccn3C)c2)no1` [Compound 10a, N-(5-(2,4-dihydroxy-5-isopropylphenyl)-4-(1-methyl-1H-indol-5-yl)-4H-1,2,4-triazol-3-yl)-5-methylisoxazole-3-carboxamide], the half-maximal inhibitory concentration (IC50) is 7.86 µM.
Still for that read-out and setting: next, `COc1cccc(Nc2nnc(-c3cc(C(C)C)c(O)cc3O)n2-c2ccc3c(ccn3C)c2)c1` [Compound 8a, 4-isopropyl-6-(5-(3-methoxyphenylamino)-4-(1-methyl-1H-indol-5-yl)-4H-1,2,4-triazol-3-yl)benzene-1,3-diol]: 1.8 µM; `CC(C)c1cc(-c2nnc(Nc3cccc(C(F)(F)F)c3)n2-c2ccc3c(ccn3C)c2)c(O)cc1O` [Compound 7a, 4-isopropyl-6-(4-(1-methyl-1H-indol-5-yl)-5-(3-(trifluoromethyl)phenylamino)-4H-1,2,4-triazol-3-yl)benzene-1,3-diol]: more than 5 µM; `CC(C)c1cc(-c2nnc(NC(=O)COc3ccc(Cl)cc3)n2-c2ccc3c(ccn3C)c2)c(O)cc1O` [Compound 19a, 2-(4-chlorophenoxy)-N-(5-(2,4-dihydroxy-5-isopropylphenyl)-4-(1-methyl-1H-indol-5-yl)-4H-1,2,4-triazol-3-yl)acetamide]: 2.74 µM.
As for `CC(C)c1cc(-c2nnc(NC(=O)C(F)(F)F)n2-c2ccc3c(ccn3C)c2)c(O)cc1O` [Compound 18a, N-(5-(2,4-dihydroxy-5-isopropylphenyl)-4-(1-methyl-1H-indol-5-yl)-4H-1,2,4-triazol-3-yl)-2,2,2-trifluoroacetamide], the IC50 turned out to be 3 µM.
Still for that read-out and setting: next, `CC(C)c1cc(-c2nnc(NC(=O)C3CCCC3)n2-c2ccc3c(ccn3C)c2)c(O)cc1O` [Compound 20a, N-(5-(2,4-dihydroxy-5-isopropylphenyl)-4-(1-methyl-1H-indol-5-yl)-4H-1,2,4-triazol-3-yl)cyclopentanecarboxamide]: 5.92 µM; `CC(C)C(=O)Nc1nnc(-c2cc(C(C)C)c(O)cc2O)n1-c1ccc2c(ccn2C)c1` [Compound 14a, N-(5-(2,4-dihydroxy-5-isopropylphenyl)-4-(1-methyl-1H-indol-5-yl)-4H-1,2,4-triazol-3-yl)isobutyramide]: 1.56 µM; `CC(C)c1cc(-c2nnc(NC(=O)c3ccco3)n2-c2ccc3c(ccn3C)c2)c(O)cc1O` [Compound 15a, N-(5-(2,4-dihydroxy-5-isopropylphenyl)-4-(1-methyl-1H-indol-5-yl)-4H-1,2,4-triazol-3-yl)furan-2-carboxamide]: 1.04 µM.

Staying with this assay, now noted: Table 8; Her2 degradation / inhibition of Hsp90; Method 2: MV-4-11 cells, 72 hours, Cell Counting Kit-8.
The molecule `CCNC(=O)Sc1nnc(-c2ccc(OC(=O)N(C)C)cc2OC(=O)N(C)C)n1-c1cccc2ccccc12` [Compound 6b, 4-(5-(ethylcarbamoylthio)-4-(naphthalen-1-yl)-4H-1,2,4-triazol-3-yl)-1,3-phenylene bis(dimethyl carbamate)] returned a half-maximal inhibitory concentration (IC50) of more than 100 µM.

The same assay, now with this note: Table 8; Her2 degradation / inhibition of Hsp90; Method 2: MV-4-11 cells, 72 hours, Cell Counting Kit-8; read-out: IC50.
As to `COCCOc1ccc(-c2nnc(S)n2-c2cccc3ccccc23)c(O)c1` [Compound 5b, 2-(5-mercapto-4-(naphthalen-1-yl)-4H 1,2,4-triazol-3-yl)-5-(2-methoxyethoxy) phenol], the IC50 was 30 µM.
Consider `CC(C)c1cc(-c2nnc(O)n2-c2ccc3c(ccn3C(=O)CCNC(=O)OC(C)(C)C)c2)c(O)cc1O` [Compound 10b, tert-butyl 3-(5-(3-(2,4-dihydroxy-5-isopropylphenyl)-5-hydroxy-4H-1,2,4-triazol-4-yl)-1H-indol-1-yl)-3-oxopropylcarbamate], for which the IC50 is less than 0.11 µM.
Same read-out and setting: next, `CC(C)c1cc(-c2nn(COC(=O)C(N)Cc3ccccc3)c(=O)n2-c2ccc3c(ccn3C)c2)c(O)cc1O` (stereo not drawn) [Compound 13b, (3-(2,4-dihydroxy-5-isopropylphenyl)-4-(1-methyl-1H-indol-5-yl)-5-oxo-4,5-dihydro-1H-1,2,4-triazol-1-yl)methyl 2-amino-3-phenylpropanoate]: 0.027 µM; `CCc1cc(-c2nnc(S)n2-c2cccc3ccccc23)c(OC(=O)C(C)(C)C)cc1OC(=O)C(C)(C)C` [Compound 3b, 4-ethyl-6-(5-mercapto-4-(naphthalen-1-yl)-4H-1,2,4-triazol-3-yl)-1,3-phenylene bis(2,2-dimethylpropanoate)]: more than 2 µM.

Staying with this assay, now noted: Table 9; Her2 degradation / inhibition of Hsp90; Method 2: MV-4-11 cells, 72 hours, Cell Counting Kit-8; read-out: IC50 Range.
For the molecule `Cc1ccc(-n2c(O)nnc2-c2cc(C(C)C)c(O)cc2O)cc1S(=O)(=O)N(C)C` [Compound 11d, 5-(3-(2,4-dihydroxy-5-isopropylphenyl)-5-hydroxy-4H-1,2,4-triazol-4-yl)-N,N,2-trimethylbenzenesulfonamide], the concentration for half-maximal inhibition (IC50) is 0.093 µM.
The same measure, in the same setting: with `COC(CN(C)c1ccc(-n2c(O)nnc2-c2cc(C(C)C)c(O)cc2O)cn1)OC` [Compound 2d, 4-(4-(6-(N-(2,2-dimethoxyethyl)-N-methylamino)pyridin-3-yl)-5-hydroxy-4H-1,2,4-triazol-3-yl)-6-isopropylbenzene-1,3-diol] the figure was 0.107 µM.
The same measure, in the same setting: with `CC(C)c1cc(-c2nnc(O)n2-c2ccc(N3CCOCC3)nc2)c(O)cc1O` [Compound 19d, 4-(5-hydroxy-4-(6-morpholinopyridin-3-yl)-4H-1,2,4-triazol-3-yl)-6-isopropylbenzene-1,3-diol] the figure was 0.049 µM; with `CC(C)c1cc(-c2nnc(O)n2-c2cccc(S(=O)(=O)N3CCOCC3)c2)c(O)cc1O` [Compound 15d, 4-(5-hydroxy-4-(3-(morpholinosulfonyl)phenyl)-4H-1,2,4-triazol-3-yl)-6-isopropylbenzene-1,3-diol], 0.33 µM; with `CC(C)c1cc(-c2nnc(O)n2-c2ccc(N(C)CCN(C)C)nc2)c(O)cc1O` [Compound 5d, 4-(4-(6-(N-(2-(dimethylamino)ethyl)-N-methylamino)pyridin-3-yl)-5-hydroxy-4H-1,2,4-triazol-3-yl)-6-isopropylbenzene-1,3-diol], 0.22 µM.
Take `CC(C)c1cc(-c2nnc(O)n2-c2ccc(N(C)S(C)(=O)=O)cc2)c(O)cc1O` [Compound 17d, N-(4-(3-(2,4-dihydroxy-5-isopropylphenyl)-5-hydroxy-4H-1,2,4-triazol-4-yl)phenyl)-N-methylmethanesulfonamide]: the half-maximal inhibitory concentration (IC50) is 0.085 µM.

The subject of a further assay is Her2. The experiment in a line: Degradation of Her2 in BT-474 cells, Western blot (Method 1). It is filed as cell-based, human. As to conditions: 0.5 μM, overnight, positive control. As to the method: Human high-Her2 breast carcinoma BT474 (HTB-20), SK-BR-3 (HTB-30) and MCF-7 breast carcinoma (HTB-22) from American Type Culture Collection, VA, USA were grown in Dulbecco's modified Eagle's medium with 4 mM L-glutamine and antibiotics ([…] penicillin and 100 ug/ml streptomycine; GibcoBRL). To obtain exponential cell growth, cells were trypsinized, counted and seeded at a cell density of 0.5×10^6 cells/ml regularly, every 3 days. All experiments were performed on day 1 after cell passage.
BT-474 cells are treated with 0.5 μM, 2 μM, or 5 μM of 17AAG (a positive control) or 0.5 μM, 2 μM, or 5 μM of a compound of the invention overnight in DMEM medium. After treatment, each cytoplasmic sample is prepared from 1×10^6 cells by incubation of cell lysis buffer (#9803, cell Signaling Technology) on ice for 10 minutes. The resulting supernatant used as the cytosol fractions is dissolved with sample buffer for SDS-PAGE and run on a SDS-PAGE gel, blotted onto a nitrocellulose membrane by using semi-dry transfer. Non-specific binding to nitrocellulose is blocked with 5% skim milk in TBS with 0.5% Tween at room temperature for 1 hour, then probed with anti-Her2/ErB2 mAb (rabbit IgG, #2242, Cell Signaling) and anti-Tubulin (T9026, Sigma) as housekeeping control protein. […]
Background: In western blotting, separated proteins are transferred to a membrane and probed.
As to `C=CCNC1=C2C[C@@H](C)C[C@H](OC)[C@H](O)[C@@H](C)/C=C(\C)[C@H](OC(N)=O)[C@@H](OC)/C=C\C=C(/C)C(=O)NC(=CC1=O)C2=O` [Compound 17AAG, 17-allylamino-17-demethoxygeldanamycin], the “degradation of Her2” value is listed as “partial degradation”.

Source of the values: patent US8835464B2, “Triazole compounds that modulate HSP90 activity” (Synta Pharmaceuticals Corp., priority 2006, dated 2014).
